Consider 25 molecules from patent publication US11591341B2 (ALIGOS THERAPEUTICS, INC., priority 2019, dated 2023).

The test system of this assay is HBV. Kind of assay: HBV-DNA Antiviral Assay Using HepG2.117 Cells (intracellular HBV DNA by qPCR). Type of assay: cell-based, hepatitis B virus (genotype D). The note with it: Hepatitis B virus, HepG2.117. Put shortly: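 HepG2.117 cells (genotype D HBV, Tet-off) were induced by doxycycline withdrawal and treated for 3 days with 9 concentrations in 4-fold dilution, 2% DMSO final. Intracellular HBV DNA was measured by qPCR against a standard curve, with ATPlite viability read in parallel. EC50, EC90 and CC50 came from fits against the DMSO control.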
For orientation: Real-time PCR tracks product formation cycle by cycle.

The EC50 is the concentration needed to bring the measured effect to its halfway point. The low end stands for greater potency, the high end for weaker potency.

The structures appear in SMILES notation. A value given as a limit tells only on which side of the number the result lay.

In turn, `COc1ccc([C@H](C)NC(=O)c2c3n(c(=O)n2-c2ccc(OC4CC4)cc2)C[C@H](C)N(C(=O)c2ccc(Br)c(Cl)c2)C3)cc1` (mixture of isomers) [Example 436, (6SR)-7-(4-bromo-3-chloro-benzoyl)-2-[4-(cyclopropoxy)phenyl]-N-[(1S)-1-(4-methoxyphenyl)ethyl]-6-methyl-3-oxo-6,8-dihydro-5H-imidazo[1,5-a]pyrazine-1-carboxamide] gave a concentration giving a half-maximal response (EC50) of under 0.1 µM.

For the molecule `C[C@H](c1ccccc1)N1C[C@@H](O)Cn2c(c3n(c2=O)CCN(C(=O)c2ccc(Br)c(Cl)c2)C3)C1=O` (stereo in doubt) [Example 202, (11RS)-4-(4-bromo-3-chloro-benzoyl)-11-hydroxy-13-[(1R)-1-phenylethyl]-4,7,9,13-tetrazatricyclo[7.5.0.0^2,7]tetradec-1-ene-8.14-dione], the concentration giving a half-maximal response (EC50) lay in the range of 0.1 to 0.5 µM.

Molecule `COc1ccc(-n2c(C(=O)NCc3ccc4oc(C)nc4c3)c3n(c2=O)CCN(C(=O)c2ccc(Cl)c(Cl)c2)C3)cc1` [Example 67, 7-(3,4-dichlorobenozyl)-2-(4-methoxyphenyl)-N-[(2-methyl-1,3-benzoxazol-5-yl)methyl]-3-oxo-6,8-dihydro-5H-imidazo[1,5-a]pyrazine-1-carboxamide] yielded a concentration for a half-maximal effect (EC50) of 0.5 to 5 µM.

On to `O=C(NCc1ccccc1)c1c2n(c(=O)n1-c1ccc(N3CCC3)cc1)CCN(C(=O)c1ccc(Br)c(Cl)c1)C2` [Example 390, 2-[4-(azetidin-1-yl)phenyl]-N-benzyl-7-(4-bromo-3-chloro-benzoyl)-3-oxo-6,8-dihydro-5H-imidazo[1,5-a]pyrazine-1-carboxamide], for which the EC50 fell in the range of 0.1 to 0.5 µM.

With `COc1ccc(-n2c(C(=O)NCc3ccccc3)c3n(c2=O)CC(C2CC2)N(C(=O)c2ccc(Br)c(Cl)c2)C3)cc1` (racemic) [Example 280, rac-(6R)-N-benzyl-7-(4-bromo-3-chloro-benzoyl)-6-cyclopropyl-2-(4-methoxyphenyl)-3-oxo-6,8-dihydro-5H-imidazo[1,5-a]pyrazine-1-carboxamide], the EC50 was 0.1 to 0.5 µM.

Take `O=C(NCc1ccccc1-n1cccn1)c1c2n(c(=O)n1-c1ccc(OCC(F)(F)F)cc1)CCN(C(=O)c1ccc(Br)c(Cl)c1)C2` [Example 231, 7-(4-bromo-3-chloro-benzoyl)-3-oxo-N[(2-pyrazol-1-ylphenyl)methyl]-2-[4-(2,2,2-trifluoroethoxy)phenyl]-6,8-dihydro-5H-imidazo[1,5-a]pyrazine-1-carboxamide]: the EC50 is under 0.1 µM.

`NC(=O)c1ccc(-n2c(C(=O)NCc3ccccc3)c3n(c2=O)CCN(C(=O)c2ccc(Br)c(Cl)c2)C3)cc1` [Example 25, N-benzyl-7-(4-bromo-3-chloro-benozyl)-2-(4-carbamoylphenyl)-3-oxo-6,8-dihydro-5H-imidazo[1,5-a]pyrazine-1-carboxamide] had an EC50 of over 5 µM.

`C[C@@H](NC(=O)c1c2n(c(=O)n1-c1ccc(OCC(F)(F)F)cc1)CCN(C(=O)c1ccc(Br)c(Cl)c1)C2)c1ccccc1F` (stereo in doubt) [Example 262, 7-(4-bromo-3-chloro-benzoyl)-3-oxo-N-[rac-(1R)-1-(2-fluorophenyl)ethyl]-2-[4-(2,2,2-trifluoroethoxy)phenyl]-6,8-dihydro-5H-imidazo[1,5-a]pyrazine-1-carboxamide] registered a concentration giving a half-maximal response (EC50) of 0.1 to 0.5 µM.

Regarding `O=C(NCc1ccccc1)c1c2n(c(=O)n1-c1ccc(N3CCC(F)(F)C3)cc1)CCN(C(=O)c1ccc(Br)c(Cl)c1)C2` [Example 392, N-benzyl-7-(4-bromo-3-chloro-benzoyl)-2-[4-(3,3-difluoropyrrolidin-1-yl)phenyl]-3-oxo-6,8-dihydro-5H-imidazo[1,5-a]pyrazine-1-carboxamide], the EC50 lay within 0.1 to 0.5 µM.

Molecule `CC(C)Oc1ccc(-n2c(C(=O)NCc3ccc(C(=O)O)cc3)c3n(c2=O)CCN(C(=O)c2ccc(Br)c(Cl)c2)C3)cc1` [Example 294, 4-[[[7-(4-bromo-3-chloro-benzoyl)-2-(4-isopropoxyphenyl)-3-oxo-6,8-dihydro-5H-imidazo[1,5-a]pyrazine-1-carbonyl]amino]methyl]benzoic acid] registered an EC50 of over 5 µM.

`O=C(NCc1ccccc1)c1c2n(c(=O)n1-c1ccc3cn[nH]c3c1)CCN(C(=O)c1ccc(Br)c(Cl)c1)C2` [Example 408, N-benzyl-7-(4-bromo-3-chloro-benzoyl)-2-(1H-indazol-6-yl)-3-oxo-6,8-dihydro-5H-imidazo[1,5-a]pyrazine-1-carboxamide] displayed an EC50 of 0.1 to 0.5 µM.

Turning to `COc1ccc(-n2c(C(=O)Nc3ccccc3)c3n(c2=O)CCN(C(=O)c2ccc(Cl)c(Cl)c2)C3)cc1` [Example 83, 7-(3,4-dichlorobenzoyl)-2-(4-methoxyphenyl)-3-oxo-N-phenyl-6,8-dihydro-5H-imidazo[1,5-a]pyrazine-1-carboxamide], the EC50 is over 5 µM.

For `C[C@@H](Oc1ccc(CNC(=O)c2c3n(c(=O)n2-c2ccc(OCC(F)(F)F)cc2)CCN(C(=O)c2ccc(Br)c(Cl)c2)C3)c(F)c1)C(N)=O` (stereo in doubt) [Example 354, 7-(4-bromo-3-chloro-benozyl)-N-[[2-fluoro-4-[rac-(1R)-2-amino-1-methyl-2-oxo-ethoxy]phenyl]methyl]-3-oxo-2-[4-(2,2,2-trifluoroethoxy)phenyl]-6,8-dihydro-5H-imidazo[1,5-a]pyrazine-1-carboxamide], the concentration giving a half-maximal response (EC50) was in the range of 0.5 to 5 µM.

The molecule `O=C(NCc1ccccc1)c1c2n(c(=O)n1-c1ccc(-n3cc(F)cn3)cc1)CCN(C(=O)c1ccc(Br)c(Cl)c1)C2` [Example 427, N-benzyl-7-(4-bromo-3-chloro-benzoyl)-2-[4-(4-fluoropyrazol-1-yl)phenyl]-3-oxo-6,8-dihydro-5H-imidazo[1,5-a]pyrazine-1-carboxamide] showed an EC50 of 0.1 to 0.5 µM.

`CC(C)(NC(=O)c1c2n(c(=O)n1-c1ccccc1)CCN(C(=O)c1ccc(Br)c(Cl)c1)C2)c1ccccc1` [Example 30, 7-(4-bromo-3-chloro-benzoyl)-N-(1-methyl-1-phenyl-ethyl)-3-oxo-2-phenyl-6,8-dihydro-5H-imidazo[1,5-a]pyrazine-1-carboxamide]: the EC50 was over 5 µM.

`C[C@@H](NC(=O)c1c2n(c(=O)n1-c1ccc(OCC(F)(F)F)cc1)CCN(C(=O)c1ccc(Br)c(Cl)c1)C2)c1ccc(OCC(N)=O)cc1-n1cccn1` (stereo in doubt) [Example 381, 7-(4-bromo-3-chloro-benzoyl)-3-oxo-N-[rac-(1R)-1-[4-(2-amino-2-oxo-ethoxy)-2-pyrazol-1-yl-phenyl]ethyl]-2-[4-(2,2,2-trifluoroethoxy)phenyl]-6,8-dihydro-5H-imidazo[1,5-a]pyrazine-1-carboxamide] registered an EC50 of over 5 µM.

`O=C(NC1(c2ccccc2)CC1)c1c2n(c(=O)n1-c1ccccc1)CCN(C(=O)c1ccc(Br)c(Cl)c1)C2` [Example 31, 7-(4-bromo-3-chloro-benzoyl)-3-oxo-2-phenyl-N-(1-phenylcyclopropyl)-6,8-dihydro-5H-imidazo[1,5-a]pyrazine-1-carboxamide] came in with an EC50 of over 5 µM.

For the molecule `COc1cc(Cl)c(-n2c(C(=O)NCc3ccccc3)c3n(c2=O)CCN(C(=O)c2ccc(Cl)c(Cl)c2)C3)c(Cl)c1` [Example 96, N-benzyl-7-(3,4-dichlorobenzoyl)-2-(2,6-dichloro-4-methoxy-phenyl)-3-oxo-6,8-dihydro-5H-imidazo[1,5-a]pyrazine-1-carboxamide], the EC50 is over 5 µM.

Regarding `N#CCOc1ccc(CNC(=O)c2c3n(c(=O)n2-c2ccc(OCC(F)(F)F)cc2)CCN(C(=O)c2ccc(Br)c(Cl)c2)C3)c(F)c1` [Example 326, 7-(4-bromo-3-chloro-benzoyl)-N-[[4-(cyanomethoxy)-2-fluoro-phenyl]methyl]-3-oxo-2-[4-(2,2,2-trifluoroethoxy)phenyl]-6,8-dihydro-5H-imidazo[1,5-a]pyrazine-1-carboxamide], the EC50 was 0.1 to 0.5 µM.

In turn, `CC(C)Oc1ccc(-n2c(-c3ncc(Cc4ccccc4)s3)c3n(c2=O)CCN(C(=O)c2ccc(Br)c(Cl)c2)C3)cc1` [Example 325, 1-(5-benzylthiazol-2-yl)-7-(4-bromo-3-chlorobenzoyl)-2-(4-isopropoxyphenyl)-5,6,7,8-tetrahydroimidazo[1,5-a]pyrazin-3(2H)-one] returned an EC50 of over 5 µM.

`O=C(NCc1ccccc1-c1ncccn1)c1c2n(c(=O)n1-c1ccc(OC3CC3)cc1)CCN(C(=O)c1ccc(Br)c(Cl)c1)C2` [Example 376, 7-(4-bromo-3-chloro-benzoyl)-2-[4-(cyclopropoxy)phenyl]-3-oxo-N-[(2-pyrimidin-2-ylphenyl)methyl]-6,8-dihydro-5H-imidazo[1,5-a]pyrazine-1-carboxamide] gave an EC50 of under 0.1 µM.

The molecule `O=C(NCc1ccccc1)c1c2n(c(=O)n1-c1ccc3[nH]c(C(F)(F)F)cc3c1)CCN(C(=O)c1ccc(Br)c(Cl)c1)C2` [Example 352, N-benzyl-7-(4-bromo-3-chloro-benzoyl)-3-oxo-2-[2-(trifluoromethyl)-1H-indol-5-yl]-6,8-dihydro-5H-imidazo[1,5-a]pyrazine-1-carboxamide] displayed an EC50 of 0.5 to 5 µM.

The molecule `CC(C)Oc1ccc(-n2c(C(=O)NCc3ccccc3)c3n(c2=O)CCN(C(=O)c2ccc(Br)c(C#N)c2)C3)cc1` [Example 217, N-benzyl-7-(4-bromo-3-cyano-benzoyl)-2-(4-isopropoxyphenyl)-3-oxo-6,8-dihydro-5H-imidazo[1,5-a]pyrazine-1-carboxamide] yielded an EC50 of 0.5 to 5 µM.

`COc1ccc(-n2c(C(=O)NC(c3ccccc3)C(C)C)c3n(c2=O)CCN(C(=O)c2ccc(Br)c(Cl)c2)C3)cc1` (racemic) [Example 160, 7-(4-bromo-3-chloro-benzoyl)-2-(4-methoxyphenyl)-3-oxo-N-[rac-(1S)-2-methyl-1-phenyl-propyl]-6,8-dihydro-5H-imidazo[1,5-a]pyrazine-1-carboxamide]: the EC50 was 0.5 to 5 µM.

Consider `COc1ccc(-n2c(C(=O)NCc3ccncc3)c3n(c2=O)CCN(C(=O)c2ccc(Cl)c(Cl)c2)C3)cc1` [Example 57, 7-(3,4-dichlorobenzoyl)-2-(4-methoxyphenyl)-3-oxo-N-(4-pyridylmethyl)-6,8-dihydro-5H-imidazo[1,5-a]pyrazine-1-carboxamide], for which the concentration giving a half-maximal response (EC50) is over 5 µM.
